Columns and labels:
[1] = biological target: T1, KRas-mediated phosphorylation of ERK in A549 cells (Homo sapiens, UniProt P01116, G12S); assay: Inhibition of KRas-mediated phosphorylation of ERK (HTRF), A549 cells; format: cell-based; conditions: HTRF pERK, 3 h incubation
T1 construct: pERK HTRF read-out

[2] = biological target: T2, KRas-mediated phosphorylation of ERK in H358 cells (Homo sapiens, UniProt P01116, G12C); assay: Inhibition of KRas-mediated phosphorylation of ERK (HTRF), H358 cells; format: cell-based; conditions: HTRF pERK, 3 h incubation
T2 construct: pERK HTRF read-out
T2 sequence (P01116 1-188 isoform P01116-2 G12C): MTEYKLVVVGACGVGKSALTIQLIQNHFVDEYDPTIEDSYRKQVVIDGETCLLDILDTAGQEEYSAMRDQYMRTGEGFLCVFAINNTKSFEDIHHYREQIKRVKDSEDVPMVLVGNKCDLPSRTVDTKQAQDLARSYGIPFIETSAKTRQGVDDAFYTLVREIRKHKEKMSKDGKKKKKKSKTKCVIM

[3] = biological target: T3, KRas G12C (Homo sapiens, UniProt P01116, G12C); assay: KRas binding assay, TR-FRET displacement of Cy5 labelled tracer; conditions: 60-minute incubation at room temperature, 1% DMSO, pH 7.5
T3 construct: Biotinylated KRas (corresponding to amino acids 1-169, produced at Accelegan Inc.); biotin (biotinylated); purchased Accelegan Inc
T3 sequence (P01116 1-169 isoform P01116-2 G12C): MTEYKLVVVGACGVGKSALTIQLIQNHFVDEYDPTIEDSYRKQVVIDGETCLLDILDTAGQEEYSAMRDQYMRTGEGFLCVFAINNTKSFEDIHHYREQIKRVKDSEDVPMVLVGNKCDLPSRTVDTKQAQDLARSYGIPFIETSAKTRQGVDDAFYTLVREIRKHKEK
Outline: (§1)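 Compound competes with tracer for biotin-labelled KRas (amino acids 1-169) bound to terbium-streptavidin. Incubation runs 60 minutes at room temperature, final DMSO 1%. IC50 values derive from a 4-parameter fit.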

[4] = biological target: T4, KRas WT (Homo sapiens, UniProt P01116); assay: as above; conditions: 60-minute incubation at room temperature, 1% DMSO, pH 7.5
T4 construct: Biotinylated KRas (corresponding to amino acids 1-169, produced at Accelegan Inc.); biotin (biotinylated); purchased Accelegan Inc
T4 sequence (P01116 1-169 isoform P01116-2): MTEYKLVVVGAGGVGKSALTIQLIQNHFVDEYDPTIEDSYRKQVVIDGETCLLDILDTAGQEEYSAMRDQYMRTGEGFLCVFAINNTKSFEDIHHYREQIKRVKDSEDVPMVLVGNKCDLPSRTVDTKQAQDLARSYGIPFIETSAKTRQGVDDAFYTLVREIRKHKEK
Outline: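 Room-temperature incubation (60 min) of compound with biotinylated KRas 1-169, tracer and Tb-streptavidin preceded the TR-FRET read. Final DMSO was 1%; buffer pH 7.5. Percent-of-control values went into a 4-parameter equation to give IC50.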

[5] = biological target: T5, KRas G12S (Homo sapiens, UniProt P01116, G12S); assay: as above; conditions: 60-minute incubation at room temperature, 1% DMSO, pH 7.5
T5 construct: Biotinylated KRas (corresponding to amino acids 1-169, produced at Accelegan Inc.); biotin (biotinylated); purchased Accelegan Inc
T5 sequence (P01116 1-169 isoform P01116-2 G12S): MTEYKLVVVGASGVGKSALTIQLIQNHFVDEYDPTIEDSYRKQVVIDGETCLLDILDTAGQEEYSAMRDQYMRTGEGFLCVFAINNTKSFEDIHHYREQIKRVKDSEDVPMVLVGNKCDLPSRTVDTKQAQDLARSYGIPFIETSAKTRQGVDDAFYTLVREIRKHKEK
Outline: as §1

[6] = biological target: T6, KRas-mediated phosphorylation of ERK in MKN1 cells (Homo sapiens, UniProt P01116); assay: Inhibition of KRas-mediated phosphorylation of ERK (HTRF), MKN1 cells; format: cell-based; conditions: MKN1 cells (KRas WT); HTRF pERK; 3 h incubation
T6 construct: pERK HTRF read-out
T6 sequence (P01116 1-188 isoform P01116-2): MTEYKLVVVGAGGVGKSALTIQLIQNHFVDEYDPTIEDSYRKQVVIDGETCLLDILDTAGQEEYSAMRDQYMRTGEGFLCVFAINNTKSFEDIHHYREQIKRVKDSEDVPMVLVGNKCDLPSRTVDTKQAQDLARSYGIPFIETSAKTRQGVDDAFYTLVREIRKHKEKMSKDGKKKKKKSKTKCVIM
Procedure: Inhibition of KRas Phosphorylation of ERK (HTRF) by Exemplary Compounds of Formula (Ia) or (Ib)
Cisbio HTRF Advanced pERK Assay Catalog #64AERPEH • Cells: MKN1, PSN1 • Procedure: • 1. Day 1: Seed 6,000 cells/well −25 μl/well in 384-well white solid bottom plate; RPM1_10% FBS. Incubate overnight at 37 °C/5% CO2. • 2.

T1 sequence (P01116 1-188 isoform P01116-2 G12S): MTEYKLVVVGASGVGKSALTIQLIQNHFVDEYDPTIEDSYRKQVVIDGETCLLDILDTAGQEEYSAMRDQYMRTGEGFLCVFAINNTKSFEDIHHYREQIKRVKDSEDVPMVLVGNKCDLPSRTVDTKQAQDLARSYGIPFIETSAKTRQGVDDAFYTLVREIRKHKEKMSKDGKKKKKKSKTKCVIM

`CCc1c(F)ccc2cc(O)cc(-c3ncc4c(N(CC)CCCC(=O)n5ccc(C)n5)nc(OC[C@@]56CCCN5C[C@H](F)C6)nc4c3F)c12` [Example 164, 4-(ethyl(7-(8-ethyl-7-fluoro-3-hydroxynaphthalen-1-yl)-8-fluoro-2-(((2R,7aS)-2-fluorotetrahydro-1H-pyrrolizin-7a(5H)-yl)methoxy)pyrido[4,3-d]pyrimidin-4-yl)amino)-1-(3-methyl-1H-pyrazol-1-yl) butan-1-one] was tested, and the IC50 [1] was 50 nM, the IC50 [2] was 999 nM and the IC50 [3] was 5 nM. The IC50 [4] was 103 nM, the IC50 [5] was 8 nM and the IC50 [6] was 2210 nM.

Work on `CCc1c(F)ccc2cc(O)cc(-c3ncc4c(N(CCCC(=O)n5ccc(C)n5)C5CC5)nc(OC[C@@]56CCCN5C[C@H](F)C6)nc4c3F)c12` [Example 165, 4-(cyclopropyl(7-(8-ethyl-7-fluoro-3-hydroxynaphthalen-1-yl)-8-fluoro-2-(((2R,7aS)-2-fluorotetrahydro-1H-pyrrolizin-7a(5H)-yl)methoxy)pyrido[4,3-d]pyrimidin-4-yl)amino)-1-(3-methyl-1H-pyrazol-1-yl) butan-1-one] yielded an IC50 [1] of 62 nM, an IC50 [2] of 450 nM and an IC50 [3] of 2 nM. The IC50 [4] was 52 nM, the IC50 [5] was 4 nM and the IC50 [6] was 226 nM.

Compound `CCc1c(F)ccc2cc(O)cc(-c3ncc4c(N5CCCC(C(=O)n6ccc(C)n6)CC5)nc(OCC5(CN(C)C)CC5)nc4c3F)c12` (stereo not drawn) [Example 167, (1-(2-((1-((dimethylamino)methyl)cyclopropyl)methoxy)-7-(8-ethyl-7-fluoro-3-hydroxynaphthalen-1-yl)-8-fluoropyrido[4,3-d]pyrimidin-4-yl)azepan-4-yl)(3-methyl-1H-pyrazol-1-yl)methanone] has an IC50 [1] of 326 nM, an IC50 [2] of 5100 nM and an IC50 [3] of 94 nM. For the same compound, the IC50 [4] was 528 nM, the IC50 [5] was 29 nM and the IC50 [6] was 3050 nM.

With `Cc1ccn(C(=O)C2CCCN(c3nc(OC[C@@]45CCCN4C/C(=C\F)C5)nc4c(F)c(-c5ccc(F)c6sc(N)c(C#N)c56)c(Cl)cc34)CC2)n1` (stereo partly drawn) [Example 175, 2-amino-4-(6-chloro-8-fluoro-2-(((S,Z)-2-(fluoromethylene)tetrahydro-1H-pyrrolizin-7a(5H)-yl)methoxy)-4-(4-(3-methyl-1H-pyrazole-1-carbonyl)azepan-1-yl)quinazolin-7-yl)-7-fluorobenzo[b]thiophene-3-carbonitrile] the IC50 [1] was 6 nM, the IC50 [2] was 11 nM and the IC50 [3] was 9 nM. The IC50 [4] was 16 nM, the IC50 [5] was 8 nM and the IC50 [6] was 177 nM.

In the case of `Cc1ccn(C(=O)CCN(C)c2nc(OC[C@@]34CCCN3C[C@H](F)C4)nc3c(F)c(-c4ccc(F)c5sc(N)c(C#N)c45)c(Cl)cc23)n1` [Example 176, 2-amino-4-(6-chloro-8-fluoro-2-(((2R,7aS)-2-fluorotetrahydro-1H-pyrrolizin-7a(5H)-yl)methoxy)-4-(methyl(3-(3-methyl-1H-pyrazol-1-yl)-3-oxopropyl)amino)quinazolin-7-yl)-7-fluorobenzo[b]thiophene-3-carbonitrile], the IC50 [1] is reported as 388 nM, the IC50 [2] is reported as 295 nM and the IC50 [3] is reported as 3 nM. It also gave an IC50 [4] of 12 nM, an IC50 [5] of 5 nM and an IC50 [6] of 250 nM.

`Cc1ccn(C(=O)CCNc2nc(OC[C@@]34CCCN3C[C@H](F)C4)nc3c(F)c(-c4ccc(F)c5sc(N)c(C#N)c45)c(Cl)cc23)n1` [Example 177, 2-amino-4-(6-chloro-8-fluoro-2-(((2R,7aS)-2-fluorotetrahydro-1H-pyrrolizin-7a(5H)-yl)methoxy)-4-((3-(3-methyl-1H-pyrazol-1-yl)-3-oxopropyl)amino)quinazolin-7-yl)-7-fluorobenzo[b]thiophene-3-carbonitrile] was tested, and the IC50 [1] was 227 nM, the IC50 [2] was 1110 nM and the IC50 [3] was 2 nM. The IC50 [4] was 9 nM, the IC50 [5] was 4 nM and the IC50 [6] was 1250 nM.

Work on `Cc1ccn(C(=O)C2CC3CN(c4nc(OC[C@@]56CCCN5C[C@H](F)C6)nc5c(F)c(-c6ccc(F)c7sc(N)c(C#N)c67)c(Cl)cc45)CC32)n1` (stereo partly drawn) [Example 178, 2-amino-4-(6-chloro-8-fluoro-2-(((2R,7aS)-2-fluorotetrahydro-1H-pyrrolizin-7a(5H)-yl)methoxy)-4-(6-(3-methyl-1H-pyrazole-1-carbonyl)-3-azabicyclo[3.2.0]heptan-3-yl)quinazolin-7-yl)-7-fluorobenzo[b]thiophene-3-carbonitrile] yielded an IC50 [1] of 108 nM, an IC50 [2] of 226 nM and an IC50 [3] of 13 nM. It also gave an IC50 [4] of 44 nM, an IC50 [5] of 15 nM and an IC50 [6] of 356 nM.

`Cc1ccn(C(=O)C2C[C@@H]3CN(c4nc(OC[C@@]56CCCN5C[C@H](F)C6)nc5c(F)c(-c6ccc(F)c7sc(N)c(C#N)c67)c(Cl)cc45)C[C@@H]3C2)n1` (stereo partly drawn) [Example 180, 2-amino-4-(6-chloro-8-fluoro-2-(((2R,7aS)-2-fluorotetrahydro-1H-pyrrolizin-7a(5H)-yl)methoxy)-4-((3aR,6aS)-5-(3-methyl-1H-pyrazole-1-carbonyl)hexahydrocyclopenta[c]pyrrol-2 (1H)-yl)quinazolin-7-yl)-7-fluorobenzo[b]thiophene-3-carbonitrile] gave an IC50 [1] of 27 nM, an IC50 [2] of 232 nM and an IC50 [3] of 26 nM. For the same compound, the IC50 [4] was 67 nM, the IC50 [5] was 4 nM and the IC50 [6] was 441 nM.

Compound `Cc1ccn(C(=O)[C@@H]2C[C@H]2CNc2nc(OC[C@@]34CCCN3C[C@H](F)C4)nc3c(F)c(-c4ccc(F)c5sc(N)c(C#N)c45)c(Cl)cc23)n1` [Example 181, 2-amino-4-(6-chloro-8-fluoro-2-(((2R,7aS)-2-fluorotetrahydro-1H-pyrrolizin-7a(5H)-yl)methoxy)-4-((((trans)-2-(3-methyl-1H-pyrazole-1-carbonyl)cyclopropyl)methyl)amino)quinazolin-7-yl)-7-fluorobenzo[b]thiophene-3-carbonitrile] has an IC50 [1] of 15 nM, an IC50 [2] of 71 nM and an IC50 [3] of 10 nM. The IC50 [4] was 17 nM, the IC50 [5] was 9 nM and the IC50 [6] was 111 nM.

In the case of `N#Cc1c(N)sc2c(F)ccc(-c3c(Cl)cc4c(N5CCN(S(=O)(=O)n6cncn6)CC5)nc(OC[C@@]56CCCN5C[C@H](F)C6)nc4c3F)c12` [Example 186, 4-(4-(4-((1H-1,2,4-triazol-1-yl)sulfonyl)piperazin-1-yl)-6-chloro-8-fluoro-2-(((2R,7aS)-2-fluorotetrahydro-1H-pyrrolizin-7a(5H)-yl)methoxy)quinazolin-7-yl)-2-amino-7-fluorobenzo[b]thiophene-3-carbonitrile], the IC50 [1] is reported as 2830 nM, the IC50 [2] is reported as 1120 nM and the IC50 [3] is reported as 136 nM. The IC50 [4] was 32 nM, the IC50 [5] was 156 nM and the IC50 [6] was 184 nM.

Compound `CN(C)c1ccn(C(=O)C2CCCN(c3nc(OC[C@@]45CCCN4C[C@H](F)C5)nc4c(F)c(-c5ccc(F)c6sc(N)c(C#N)c56)c(Cl)cc34)CC2)n1` (stereo partly drawn) [Example 188, 2-amino-4-(6-chloro-4-(4-(3-(dimethylamino)-1H-pyrazole-1-carbonyl)azepan-1-yl)-8-fluoro-2-(((2R,7aS)-2-fluorotetrahydro-1H-pyrrolizin-7a(5H)-yl)methoxy)quinazolin-7-yl)-7-fluorobenzo[b]thiophene-3-carbonitrile] has an IC50 [1] of 39 nM, an IC50 [2] of 9 nM and an IC50 [3] of 8 nM. The IC50 [4] was 26 nM, the IC50 [5] was 13 nM and the IC50 [6] was 140 nM.

Work on `N#Cc1c(N)sc2c(F)ccc(-c3c(Cl)cc4c(N5CCCC(C(=O)n6ccc(C7CC7)n6)CC5)nc(OC[C@@]56CCCN5C[C@H](F)C6)nc4c3F)c12` (stereo partly drawn) [Example 189, 2-amino-4-(6-chloro-4-(4-(3-cyclopropyl-1H-pyrazole-1-carbonyl)azepan-1-yl)-8-fluoro-2-(((2R,7aS)-2-fluorotetrahydro-1H-pyrrolizin-7a(5H)-yl)methoxy)quinazolin-7-yl)-7-fluorobenzo[b]thiophene-3-carbonitrile] yielded an IC50 [1] of 27 nM, an IC50 [2] of 43 nM and an IC50 [3] of 13 nM. It also gave an IC50 [4] of 24 nM, an IC50 [5] of 8 nM and an IC50 [6] of 199 nM.

For `COCc1ccn(C(=O)C2CCCN(c3nc(OC[C@@]45CCCN4C[C@H](F)C5)nc4c(F)c(-c5ccc(F)c6sc(N)c(C#N)c56)c(Cl)cc34)CC2)n1` (stereo partly drawn) [Example 190, 2-amino-4-(6-chloro-8-fluoro-2-(((2R,7aS)-2-fluorotetrahydro-1H-pyrrolizin-7a(5H)-yl)methoxy)-4-(4-(3-(methoxymethyl)-1H-pyrazole-1-carbonyl)azepan-1-yl)quinazolin-7-yl)-7-fluorobenzo[b]thiophene-3-carbonitrile], the IC50 [1] was 7 nM, the IC50 [2] was 7 nM and the IC50 [3] was 5 nM. It also gave an IC50 [4] of 13 nM, an IC50 [5] of 4 nM and an IC50 [6] of 205 nM.

— US20260356856A1, “KRAS G12S AND G12C INHIBITORS” (MIRATI THERAPEUTICS, INC., priority 2023, published 2026)
